Converted amounts (≈) assume the structure as drawn. The source made the active and inactive calls. The rule behind the calls is not given here.
Experiments:
[1] = test system: KB; assay: Antiproliferative activity against human KB cells after 72 hrs by MTT assay; assay type: functional, cell-based
[2] = test system: HCT-8; assay: Antiproliferative activity against human HCT8 cells after 72 hrs by MTT assay; assay type: functional, cell-based; conditions: HCT-8, 72 h
[3] = test system: MDA-MB-231; assay: Antiproliferative activity against human MDA-MB-231 cells after 72 hrs by MTT assay; assay type: functional, cell-based; conditions: MDA-MB-231, 72 h
[4] = Aqueous solubility in pH 7.4 phosphate buffer by HPLC analysis; assay type: physicochemical
[5] = test system: K562; assay: Antiproliferative activity against human K562 cells after 72 hrs by MTT assay; assay type: functional, cell-based; conditions: K562, 72 h
[6] = test system: HepG2; assay: cells; conditions: Homo sapiens, HepG2, 72 h
[7] = test system: K562; assay: Cell cycle arrest in human K562 cells assessed as decrease in cdc2 expression after 48 hrs by Western blot analysis; assay type: functional, cell-based
[8] = test system: K562; assay: Cell cycle arrest in human K562 cells assessed as decrease in cyclin B1 expression after 48 hrs by Western blot analysis; assay type: functional, cell-based
[9] = molecular target: T1, Tubulin (Sus scrofa) (UniProt P02554+P02550); assay: Inhibition of porcine brain tubulin polymerization measured every 2 mins for 60 mins by spectrophotometric analysis
[10] = molecular target: T1, Tubulin (Sus scrofa); assay: Inhibition of [3H]colchicine binding to biotinylated porcine tubulin at 1 uM after 2 hrs by scintillation proximity assay relative to control; assay type: protein assay
[11] = molecular target: T1, Tubulin (Sus scrofa); assay: Inhibition of [3H]colchicine binding to biotinylated porcine tubulin at 5 uM after 2 hrs by scintillation proximity assay relative to control; assay type: protein assay
[12] = test system: K562; assay: Cell cycle arrest in human K562 cells assessed as decrease in cdc25c expression after 48 hrs by Western blot analysis; assay type: functional, cell-based
[13] = test system: K562; assay: Induction of apoptosis in human K562 assessed as nuclear fragmentation at 5 to 20 nM after 48 hrs by Hoechst 33342 staining-based fluorescence microscopic analysis; assay type: functional, cell-based
[14] = test system: K562; assay: Induction of apoptosis in human K562 assessed as chromatin condensation at 5 to 20 nM after 48 hrs by Hoechst 33342 staining-based fluorescence microscopic analysis; assay type: functional, cell-based
[15] = test system: K562; assay: Induction of apoptosis in human K562 assessed as upregulation of Bad expression after 48 hrs by Western blot analysis; assay type: functional, cell-based
[16] = test system: K562; assay: Induction of apoptosis in human K562 assessed as upregulation of Bax expression after 48 hrs by Western blot analysis; assay type: functional, cell-based
[17] = test system: K562; assay: Induction of apoptosis in human K562 assessed as down regulation of Bcl-2 expression after 48 hrs by Western blot analysis; assay type: functional, cell-based
[18] = test system: K562; assay: Induction of apoptosis in human K562 assessed as down regulation of Bcl-xl expression after 48 hrs by Western blot analysis; assay type: functional, cell-based
[19] = test system: K562; assay: Induction of ROS generation in human K562 cells after 48 hrs by DCF-DA probe-based flow cytometric analysis; assay type: functional, cell-based
[20] = test system: K562; assay: Induction of ROS generation in human K562 cells up to 20 nM after 48 hrs in presence of N-acetyl-cycteine by DCF-DA probe-based flow cytometric analysis; assay type: functional, cell-based
[21] = test system: MDA-MB-231; assay: Antimigratory activity against human MDA-MB-231 cells after 48 hrs by transwell assay; assay type: functional, cell-based
[22] = test system: MDA-MB-231; assay: Antiinvasive activity against human MDA-MB-231 cells after 48 hrs by crystal violet staining-based transwell assay; assay type: functional, cell-based
[23] = test system: HUVEC; assay: Antimigratory activity against human HUVEC cells at 20 nM after 24 hrs by wound healing assay; assay type: functional, cell-based
[24] = test system: HUVEC; assay: Inhibition of tube formation in human HUVEC cells at 5 to 20 nM after 6 hrs by tube formation assay; assay type: functional, cell-based
[25] = test system: Homo sapiens; assay: Antitumor activity against […] H22 cells xenografted in ICR mouse assessed as reduction in tumor volume administered intravenously once daily for 21 consecutive days and measured every 2 days; assay type: functional
[26] = test system: Homo sapiens; assay: Antivascular activity against […] H22 cells xenografted in ICR mouse assessed as decrease in tumor microvessel density at 20 mg/kg, iv qd […] every 2 days for 21 days by CD31/hematoxylin staining-based immunohistochemistry assay; assay type: functional, organism-based
[27] = test system: Homo sapiens; assay: Antitumor activity against […] H22 cells xenografted in ICR mouse assessed as reduction in tumor weight administered intravenously once daily for 21 consecutive days and measured every 2 days; assay type: functional
[28] = test system: Homo sapiens; assay: Antitumor activity against […] H22 cells xenografted in ICR mouse assessed as reduction in tumor volume at 20 mg/kg, iv qd for 21 consecutive days and measured every 2 days relative to control; assay type: functional, organism-based
[29] = molecular target: Tubulin (Homo sapiens) (UniProt P68371+Q9H4B7+P0DPH7+P68366+Q13509+Q71U36+P04350+Q3ZCM7+P07437+P68363+Q9BQE3+Q6PEY2+Q13885+Q9BVA1+Q9BUF5); assay: Disruption of microtubule network in human K562 cells at 30 nM after 24 hrs by scanning confocal microscopic analysis
[30] = test system: L02; assay: Cytotoxicity against human LO2 cells after 72 hrs by MTT assay; assay type: cell-based; conditions: L02, 72 h
[31] = Selectivity index, ratio of IC50 for human LO2 cells to IC50 for human HepG2 cells; assay type: toxicity; conditions: LO2 cells and HepG2 cells, read-out: Ratio IC50
[32] = Antitumor activity against […] H22 cells xenografted in ICR mouse assessed as reduction tumor weight at 8 mg/kg, iv administered every 2 days for 21 days and measured every 2 days relative to control; assay type: functional
[33] = Toxicity in ICR mouse xenografted with […] cells assessed as decrease in body weight at 8 mg/kg, iv administered every 2 days for 21 days and measured every 2 days; assay type: organism-based; conditions: in vivo
[34] = Antitumor activity against […] H22 cells xenografted in ICR mouse assessed as reduction in tumor weight at 20 mg/kg, iv qd for 21 consecutive days and measured every 2 days relative to control; assay type: functional; set-up: scale not given: the % may be the effect or the level left
[35] = Toxicity in ICR mouse xenografted with […] cells assessed as decrease in body weight at 10 to 20 mg/kg, iv qd administered for 21 days and measured every 2 days; assay type: organism-based; conditions: in vivo

T1 sequence (P02550 whole entry, looked up): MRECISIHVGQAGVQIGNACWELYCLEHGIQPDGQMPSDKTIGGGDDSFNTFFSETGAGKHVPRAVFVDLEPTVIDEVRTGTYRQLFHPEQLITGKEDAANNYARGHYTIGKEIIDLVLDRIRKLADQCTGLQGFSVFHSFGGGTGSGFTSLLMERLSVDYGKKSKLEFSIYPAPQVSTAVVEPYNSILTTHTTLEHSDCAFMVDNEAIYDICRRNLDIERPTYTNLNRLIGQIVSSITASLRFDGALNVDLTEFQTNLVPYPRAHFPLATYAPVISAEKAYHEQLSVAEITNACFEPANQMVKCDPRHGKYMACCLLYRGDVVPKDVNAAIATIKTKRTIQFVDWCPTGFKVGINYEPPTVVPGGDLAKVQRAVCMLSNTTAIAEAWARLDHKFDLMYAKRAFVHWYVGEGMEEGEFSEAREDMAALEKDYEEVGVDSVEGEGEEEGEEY
T1 sequence (P02554 whole entry, looked up): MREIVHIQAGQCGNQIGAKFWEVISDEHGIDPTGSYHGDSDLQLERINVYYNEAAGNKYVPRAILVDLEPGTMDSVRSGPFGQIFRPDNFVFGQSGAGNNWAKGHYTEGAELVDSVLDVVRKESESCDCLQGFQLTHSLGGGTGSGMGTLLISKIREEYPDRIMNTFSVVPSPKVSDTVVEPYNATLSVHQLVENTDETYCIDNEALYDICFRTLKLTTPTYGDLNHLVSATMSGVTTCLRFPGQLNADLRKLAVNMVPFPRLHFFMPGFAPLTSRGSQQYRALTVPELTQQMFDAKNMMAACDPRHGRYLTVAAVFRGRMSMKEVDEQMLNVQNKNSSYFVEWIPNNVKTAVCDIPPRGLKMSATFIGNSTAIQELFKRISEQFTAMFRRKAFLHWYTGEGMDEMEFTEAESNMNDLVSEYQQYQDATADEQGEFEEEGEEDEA

COc1ccc(/C=C/C(=O)c2cc(OC)c(OC)c(OC)c2)cc1O
IC50 [1]: 108 nM | IC50 [2]: 104 nM | IC50 [3]: 102 nM | solubility [4]: 3.2 µg/mL (≈ 9.29 µM)

C/C(=C\c1ccc2[nH]ccc2c1)C(=O)c1cc(C)nc2ccccc12
IC50 [5]: 346 nM | IC50 [1]: 429 nM | IC50 [2]: 421 nM | IC50 [3]: 425 nM | IC50 [6]: 226 nM

COc1ccc(/C=C(\C)C(=O)c2cc(N3CCCC3)nc3ccccc23)cc1O
IC50 [5]: 315 nM

COc1ccc2c(/C=C/C(=O)c3cc(C)nc4ccccc34)c[nH]c2c1
IC50 [5]: > 1000 nM

COc1ccc(/C=C(\C)C(=O)c2cc(N3CCOCC3)nc3ccccc23)cc1O
IC50 [5]: 153 nM

COc1ccc(/C=C(\C)C(=O)c2cc(C)nc3ccccc23)cc1O
Activity [7]: Dose-dependent effect | Activity [8]: Dose-dependent effect | inhibition [9]: Dose-dependent effect | inhibition [10]: 79.4% | inhibition [11]: 92.7% | Activity [12]: Dose-dependent effect | Activity [13]: Active | Activity [14]: Active | Activity [15]: Dose-dependent effect | Activity [16]: Dose-dependent effect | Activity [17]: Dose-dependent effect | Activity [18]: Dose-dependent effect | Activity [19]: Dose-dependent effect | Activity [20]: inactive | Activity [21]: Dose-dependent effect | Activity [22]: Dose-dependent effect | Activity [23]: Active | inhibition [24]: Active | Activity [25]: Dose-dependent effect | Activity [26]: Active | Activity [27]: Dose-dependent effect | Activity [28]: Active | Activity [29]: Active

COc1ccc(/C=C(\C)C(=O)c2cc(C)nc3ccccc23)cc1N
IC50 [5]: 11 nM | IC50 [1]: 25 nM | IC50 [2]: 36 nM | IC50 [3]: 63 nM | IC50 [30]: 923 nM | selectivity ratio [31]: 25.6 | IC50 [6]: 36 nM

CSc1ccc(/C=C(\C)C(=O)c2cc(C)nc3ccccc23)cc1
IC50 [5]: 563 nM

COc1ccc(/C=C\c2cc(OC)c(OC)c(OC)c2)cc1O [COMBRETASTATIN A4]
IC50 [5]: 11 nM

C/C(=C\c1cccc2[nH]ccc12)C(=O)c1cc(C)nc2ccccc12
IC50 [5]: > 1000 nM

COc1ccc(/C=C(\C)C(=O)c2cc(N(C)C)nc3ccccc23)cc1O
IC50 [5]: 49 nM | IC50 [1]: 43 nM | IC50 [2]: 52 nM | IC50 [3]: 48 nM | IC50 [6]: 57 nM

COc1ccc(/C=C(\C)C(=O)c2cc(C)nc3ccccc23)cc1
IC50 [5]: 108 nM

CCNc1cc(C(=O)/C(C)=C/c2ccc(OC)c(O)c2)c2ccccc2n1
IC50 [5]: 40 nM

COc1ccc(/C=C(\C)C(=O)c2ccnc3ccccc23)cc1O
IC50 [5]: 15 nM | IC50 [1]: 26 nM | IC50 [2]: 37 nM | IC50 [3]: 30 nM | IC50 [30]: 928 nM | selectivity ratio [31]: 38.7 | IC50 [6]: 24 nM

Cc1cc(C(=O)/C=C/c2ccc3[nH]ccc3c2)c2ccccc2n1
IC50 [5]: > 1000 nM

COc1ccc(CNc2cc(C(=O)/C(C)=C/c3ccc(OC)c(O)c3)c3ccccc3n2)cc1
IC50 [5]: 330 nM

Cc1cc(C(=O)/C=C/c2cccc3[nH]ccc23)c2ccccc2n1
IC50 [5]: > 1000 nM

COc1ccc(/C=C(\C)C(=O)c2cc(=O)[nH]c3ccccc23)cc1O
IC50 [5]: 1240 nM

COc1ccc(/C=C(\C)C(=O)c2cc(NC3CC3)nc3ccccc23)cc1O
IC50 [5]: 58 nM

CCOC(=O)c1cc(C(=O)/C(C)=C/c2ccc(OC)c(O)c2)c2ccccc2n1
IC50 [5]: 120 nM

COc1ccc(/C=C(\C)C(=O)c2cc(C)nc3ccccc23)cc1F
IC50 [5]: 69 nM

COc1cc(C(=O)/C(C)=C/c2ccc(OC)c(O)c2)c2ccccc2n1
IC50 [5]: 26 nM | IC50 [1]: 52 nM | IC50 [2]: 61 nM | IC50 [3]: 52 nM | IC50 [30]: 914 nM | selectivity ratio [31]: 24.1 | IC50 [6]: 38 nM

COc1ccc2c(/C=C(\C)C(=O)c3cc(C)nc4ccccc34)c[nH]c2c1
IC50 [5]: > 1000 nM

CC(=O)O[C@H]1C(=O)[C@@]2(C)[C@H]([C@H](OC(=O)c3ccccc3)[C@]3(O)C[C@H](OC(=O)[C@H](O)[C@@H](NC(=O)c4ccccc4)c4ccccc4)C(C)=C1C3(C)C)[C@]1(OC(C)=O)CO[C@@H]1C[C@@H]2O [PACLITAXEL]
inhibition in vivo at 8 mg/kg [32]: 90.4% | Activity [33]: Toxic

C/C(=C\c1ccc2c(ccn2C)c1)C(=O)c1cc(C)nc2ccccc12
IC50 [5]: 74 nM | IC50 [1]: 124 nM | IC50 [2]: 135 nM | IC50 [3]: 220 nM | IC50 [6]: 111 nM

COc1ccc(/C=C/C(=O)c2cc(C)nc3ccccc23)cc1N
IC50 [5]: 850 nM | IC50 [1]: 189 nM | IC50 [2]: 210 nM | IC50 [3]: 195 nM | IC50 [6]: 223 nM

COc1ccc(/C=C(\C)C(=O)c2cc(C)nc3ccccc23)cc1OC
IC50 [5]: 1060 nM

COc1ccc(/C=C(\C)C(=O)c2cc(CO)nc3ccccc23)cc1O
IC50 [5]: 50 nM | IC50 [1]: 231 nM | IC50 [2]: 242 nM | IC50 [3]: 209 nM | IC50 [6]: 165 nM

CNc1cc(C(=O)/C(C)=C/c2ccc(OC)c(O)c2)c2ccccc2n1
IC50 [5]: 18 nM | IC50 [1]: 29 nM | IC50 [2]: 40 nM | IC50 [3]: 43 nM | IC50 [30]: 1090 nM | selectivity ratio [31]: 40.2 | IC50 [6]: 27 nM

COc1ccc(/C=C/C(=O)c2cc(C)nc3ccccc23)cc1O
IC50 [5]: 127 nM | IC50 [1]: 123 nM | IC50 [2]: 137 nM | IC50 [3]: 112 nM | IC50 [6]: 121 nM

COc1ccc(/C=C(\C)C(=O)c2cc(C=O)nc3ccccc23)cc1O
IC50 [5]: 110 nM

COc1ccc(/C=C(\C)C(=O)c2cc(C)nc3ccccc23)cc1O.Cl
solubility [4]: > 1000 µg/mL | Activity [34]: 68.9% | Activity [35]: Non-Toxic

COc1ccc(/C=C(\C)C(=O)c2cc(Cl)nc3ccccc23)cc1O
IC50 [5]: 53 nM | IC50 [1]: 237 nM | IC50 [2]: 227 nM | IC50 [3]: 183 nM | IC50 [6]: 187 nM

— ChEMBL document CHEMBL4330075, “Discovery of Novel Quinoline-Chalcone Derivatives as Potent Antitumor Agents with Microtubule Polymerization Inhibitory Activity” (J Med Chem, 2019)
